According to US11135186B2, “Regulators of the endoplasmic reticulum proteostasis network” (The Scripps Research Institute, priority 2015, dated 2021):

Legend:
[1] = test system: GFP-ATF6 in U2OS-GFP-ATF6 cells; experiment: ATF6 nuclear localization, high-content imaging; type: cell-based; details: 10 μM, 5 h
Method: 300 μL of 1.375×10^4 U2OS-GFP-ATF6 cells per ml were plated per well in 96 well imaging plate (ibidi 89626) and sealed with breathable seals (E&K Scientific T896100) two days prior to drug addition. Immediately prior to addition to cells, compounds were diluted to 6× in media from 500×DMSO stock and 60 μL 6× was added to cells for 1× final (0.2% DMSO).
After 5h, media was removed and cells were fixed in 4% PFA (Electron Microscopy Sciences 15714) in PHEM buffer (60 mM PIPES, 25 mM HEPES, 10 mM EGTA, 2 mM MgCl2-hexahydrate, pH 6.9) for 15 minutes at RT. […]
Images were analyzed using CellProfiler^7, MATLAB R2014a and GraphPad Prism 5. […] The ratio of the GFP intensity in the nucleus versus the ER was calculated for each cell and plotted as a histogram per well. A threshold for the minimum ratio of nuclear to ER signal corresponding to an activated (i.e. nuclear localized ATF6) cell was calculated as the minimum nuclear: ER ratio greater than 1 where the number of ER stressed cells (Tg) was greater than the corresponding unstressed control. Percent activation per well was calculated as the percentage of cells per well with a nuclear: ER ratio greater than the calculated threshold for that plate. […]

[2] = test system: ALLC (amyloidogenic light chain); experiment: ALLC secretion from ALMC-2 cells after cycloheximide administration; type: cell-based, human; details: absence of new protein synthesis
[3] = test system: ERSE-FLuc reporter (ATF6 arm of the UPR); experiment: ERSE-FLuc reporter, 96-well, HEK293T-Rex cells (SAR and S1P inhibition); type: cell-based; details: HEK293T-Rex; 10 μM
Method: HEK293T-Rex cells incorporating the ERSE-FLuc reporter and HEK293^DAX cells were plated approximately 20,000 cells/well in flat-bottomed, black 96-well assay plates (Costar, Corning, Inc.) overnight prior to compound administration. Cells were treated with compounds as described for 12-18 h then the plates were equilibrated to room temperature and 50 μL of SteadyLite (PerkinElmer) was added to each well. Luminescence activity was measured in a Safire II microplate reader with a 1000 ms integration time.

Row | Structure (SMILES) | nuclear fraction of ATF6-GFP (ATF6 nuclear translocation) [1] | reduction in ALLC secretion after cycloheximide [2] | ERSE reporter activity relative to 263 [3]
1 | Cc1ccc(O)c(N/C=C/C(=O)c2ccc(F)cc2)c1 [Compound 132] | significantly increased |  | 
2 | Cc1ccc(O)c(NC(=O)CCc2ccccc2)c1 [Compound 147] |  | ~30% | 
3 | O=[N+]([O-])c1ccc(N/N=C/c2ccccc2O)cc1 [Compound 263] | significantly increased |  | slightly increase
